Source: patent publication US8889902B2, “Acetylsalicylic acid salts” (priority 2009, dated 2014)

What was measured:
[1] = system: rat ear skin temperature; assay: Ear skin temperature rise caused by NA, s.c. administration; format: in vivo, Wistar rats; conditions: LA 0.3 mg/kg s.c. alone
Experimental: Male Wistar rats (280-330 g) were used. Animals were held in groups of 6 in climatized rooms at 22±1° C., relative humidity 60±5%, and 12/12-hour light/dark cycle with free access to drinking water and feed (R3—Lactamin AB, Sweden). For registration of changes in skin temperature of intact rats contactless temperature recording method was used (Papaliodis D et al, Br J Pharmacol 2008; 153:1382-1387). Temperature measurements were performed with a hand-held infrared thermometer (Model Proscan 510, TFA-Dostman). Animals were habituated to handling and to the infrared probe for 3 days before use. Temperature readings from the dorsal side of each ear were recorded without anaesthesia at beginning and during experiment. The ear temperature was measured every 5 min. for a period of up to 60 min. The animals were returned to their cages between measurements. NA, MD and MASA were dissolved in saline and pH was corrected immediately before usage. LA (MK 0524, Cayman Chemicals) was first dissolved in DMSO and then freshly diluted with 0.9% NaCl, on each day of the experiment. The rate of NA and LA combination was based on Summary of Product Characteristics for Tredaptive™ (nicotinic acid/laropiprant) 1000 mg/20 mg modified-release tablets.
The influence of LA, MD or MASA alone on skin temperature was checked. Each investigated compound was introduced s.c. simultaneously with NA as LA+NA [0] or 30 min in advance to NA as LA+NA [30].

[2] = system: FeCl3 induced carotid artery thrombosis; assay: FeCl3 induced carotid artery thrombosis, time till occlusion; format: in vivo, Wistar rats; conditions: for Time till occlusion, %: control = 100
Excerpt: We chose an experimental thrombosis model based on rat arterial thrombosis induced by FeCl3 (Kurz K et al, Thromb Res 1990, 60:269-280. Wang X, Xu L, Thromb Res 2005,115:95-100). Tissue damage initiated by iron-mediated chemical oxidation predisposes the injured area to platelet adherence and aggregation followed by coagulation activation and fibrin deposition. Male Wistar rats with mass 350-420 g were used in experiments. Animals were kept in groups of 7-8 in adequate cages in climatized room at 22±1° C., relative humidity 60±5% and 12/12-hour light/darkness cycle with free access to feed and water. All experiments were carried out in accordance with the European Community Council's Directive of 24 Nov. 1986 (86/609/EEC) relative to experimental animal care. All efforts were made to minimize animal suffering and to reduce the number of animals used. Rats were randomly divided into various experimental groups, each consisting of not less than seven animals. The vehicle or test compound MD (25 mg/kg), NA (25 mg/kg), MASA (10 mg/kg), ASA (5 mg/kg) and combination MD+NA (25+25 mg/kg), MASA+NA (10+25 mg/kg) and ASA+NA (5+25 mg/kg) was administered by oral route 2 h before the initiation of thrombosis. Parallel experiments were conducted to compare the effects of a single dose of test substance (given 2 h before the initiation of thrombosis) and repeated doses (once daily for 3 days). […] Rats were anaesthetized with pentobarbital sodium (50 mg/kg, i.p. and 10 mg/kg/h) and were placed on a heat controlled operating table throughout the experiment to maintain a body temperature of 37° C. One of the carotid arteries was exposed by cervical incision, separated from the adherent tissue, vagus nerve, and a flow probe (electromagnetic blood flow meter MFV 1200, Nicon Kohden, Japan) was placed on the exposed segment of common carotid artery to record the blood flow. After a stabilization period of 15 min, thrombosis was induced by topically applying (in contact with the adventitial surface of vessel) two pieces (2×1 mm) of Whatman filter paper, soaked in 15% solution of FeCl3. Thrombosis time of carotid artery was recorded as time taken for the complete cessation of the blood flow and has been reported as time till occlusion (TTO).

[3] = system: tail bleeding; assay: Tail bleeding time during thrombosis experiment; format: in vivo, rats; conditions: for Tail bleeding time, %: control = 100
Experimental: Additionally during the thrombosis experiment rat tail bleeding time was measured. The tail was transected 5 mm from the tip with scalpel and the tail was immediately immersed into 37° C. warm isotonic saline until termination of bleeding was noted. Termination of bleeding was defined as the time of complete stop of bleeding with no recurrence of bleeding within the next 30 s.

[4] = system: platelet aggregation; assay: Platelet aggregation ex vivo after 3 days treatment; format: in vivo, rats; conditions: 5 mg/kg/d p.o. 3 days
Experimental: Platelet aggregation was studied using whole blood impedance aggregometry on Multiplate (Multiple Platelet Function Analyzer, Dynabyte Medical, Germany) (Toth O et al, Thromb Haemost 2006; 96:781-788. […] Blood samples for in vitro experiment were collected from healthy donor B. […] In the ex vivo experiment blood was collected into plastic tubes covered with hirudin (Dynabyte Medical, Germany) from narcotized rats that were treated for 3 previous days with test substances p.o. The measurements were performed according to modified Dynabyte Medical protocol. […] After 5 min incubation and stirring at 37° C., measurements were initiated by adding of the appropriate agonist solution (sourced from Dynabyte Medical, Germany): After the thrombosis experiment the narcotized animals who received test substances for 3 days were used for platelet aggregation test ex vivo. […] Blood samples were used for measurement between 30 min and 4 h after collection. The measurements were performed according to modified Dynabyte Medical protocol (see above under Platelet aggregation).

[5] = Solubility in water
[6] = Stability at ambient conditions
[7] = system: platelet aggregation; assay: Platelet aggregation in vitro, whole blood impedance aggregometry (Multiplate); format: cell-based, healthy donor; conditions: 3 × 10^−4
Experimental: Platelet aggregation was studied using whole blood impedance aggregometry on Multiplate (Multiple Platelet Function Analyzer, Dynabyte Medical, Germany) (Toth O et al, Thromb Haemost 2006; 96:781-788. […] Blood samples for in vitro experiment were collected from healthy donor B. […] In the ex vivo experiment blood was collected into plastic tubes covered with hirudin (Dynabyte Medical, Germany) from narcotized rats that were treated for 3 previous days with test substances p.o. The measurements were performed according to modified Dynabyte Medical protocol. […] After 5 min incubation and stirring at 37° C., measurements were initiated by adding of the appropriate agonist solution (sourced from Dynabyte Medical, Germany): 1) adenosine diphosphate (ADP)-ADP-Test. ADP stimulates platelet activation by the ADP receptors (P2Y 12 and other). […] 3) ADP HS test (prostaglandin E1 in combination with ADP). […] Aggregation curves were recorded for 6 min. and analyzed using Dynabyte Medical software. We calculated the following parameters of platelet aggregation: […] It is affected by the total height of the aggregation curve as well as by its slope and is best suited to express the overall platelet activity.

[8] = 5 mg/kg/d p.o., repeated, 3 days

In the case of CS(=O)(=O)c1cc(F)cc2c3c(n(Cc4ccc(Cl)cc4)c12)[C@@H](CC(=O)O)CC3 [LA, laropiprant], the Maximum temperature [1] is reported as 29.5 ± 0.35^$$$ ° C.

For COC(=O)[C@H](c1ccccc1Cl)N1CCc2sccc2C1 [CL, clopidogrel], the Time till occlusion ([2]; 5 mg/kg p.o., single dose 2 h before) was 31.7 ± 2.40^1 min, the “Time till occlusion, %” value ([2]; 5 mg/kg p.o., single dose) was 130% and the Time till occlusion [2, 8] was 49.1 ± 7.75^1 min. The “Time till occlusion, %” value [2, 8] was 194%, the Tail bleeding time ([3]; 5 mg/kg p.o., single dose) was 11.9 ± 3.62 min and the “Tail bleeding time, %” value ([3]; 5 mg/kg p.o., single dose) was 134%. The Tail bleeding time [3, 8] was 18.3 ± 3.78^1 min, the “Tail bleeding time, %” value [3, 8] was 213% and the AUC ([4]; AA induced) was 905 ± 53.5^& AU*min. The Amax ([4]; AA induced) was 160.7 ± 13.5^&@ AU, the AUC ([4]; ADP induced) was 423 ± 39.4^2& AU*min and the Amax ([4]; ADP induced) was 68.2 ± 15.1^2& AU. For the same molecule, the AUC ([4]; PGE1 + ADP induced) was 259 ± 49.3^2& AU*min and the Amax ([4]; PGE1 + ADP induced) was 49.7 ± 9.9^3&& AU.

In the case of CC(=O)Oc1ccccc1C(=O)[O-].C[N+](C)(C)CCCC(=O)O [Example 1, 4-trimethylammoniobutanoate Acetylsalicylic Acid Addition Salt], the “solubility in water (in words)” value [5] is reported as “water soluble” and the “stability (in words)” value [6] is reported as “stable at ambient conditions”.

In the case of OCCN(CCO)c1nc(N2CCCCC2)c2nc(N(CCO)CCO)nc(N3CCCCC3)c2n1 [DI, dipyridamole], the AUC ([7]; AA induced) is reported as 1104 ± 45.5^&@@ AU*min, the Amax ([7]; AA induced) is reported as 173.9 ± 5.2^&@@ AU and the AUC ([7]; ADP induced) is reported as 665 ± 44.1^2& AU*min. The Amax ([7]; ADP induced) was 111.1 ± 6.9^2& AU.
